Legend:
DP receptor = target: T1, DP receptor (Homo sapiens, UniProt Q13258); test: [3H]PGD2 radioligand binding on CHO/DP cell membranes; conditions: competition versus [3H]PGD2, CHO/DP membranes
T1 construct: expressed in transfected cells; host or cells: Chinese Hamster Ovary (CHO) cells, G418 selected
T1 sequence (Q13258 1-359): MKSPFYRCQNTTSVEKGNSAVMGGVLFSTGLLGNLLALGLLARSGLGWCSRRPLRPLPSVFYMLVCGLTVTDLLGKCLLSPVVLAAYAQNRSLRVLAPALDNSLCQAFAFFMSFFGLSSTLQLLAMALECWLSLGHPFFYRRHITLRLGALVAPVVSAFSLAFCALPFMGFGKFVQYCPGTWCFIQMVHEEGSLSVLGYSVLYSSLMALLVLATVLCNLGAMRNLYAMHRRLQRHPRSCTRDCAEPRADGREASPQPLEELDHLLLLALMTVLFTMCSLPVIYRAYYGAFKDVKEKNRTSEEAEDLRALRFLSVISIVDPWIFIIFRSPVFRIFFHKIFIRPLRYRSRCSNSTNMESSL
Experimental: (§1) Chinese Hamster Ovary cells were transfected with CRTH2 or DP receptors (CHO/CRTH2 and CHO/DP) and were maintained in culture in a humidified atmosphere at 37° C. (5% CO2) in Minimum Essential Medium (MEM) supplemented with 10% foetal bovine serum, 2 mM glutamine, and 1 mg ml^−1 active G418. The cells were passaged every 2-3 days. For radioligand binding assay, cells were prepared in triple-layer flasks or in 175 cm^2 square flasks (for membrane preparation). For calcium mobilisation assay, cells were grown in a 96 well plate 24 h prior to the assay at a density of 80,000 cells per well.
(§2) Membranes were prepared either from CHO/CRTH2 and CHO/DP cells, or from platelets (as a source of TP receptors). CHO cells grown to confluency were washed with PBS and detached using a Versene solution (15 ml per flask). When the cells were grown in 175 cm^2 square flask, they were collected by scrapping in PBS. The cell suspensions were centrifuged (1,700 rpm, 10 min, 4° C.) and resuspended in 15 ml of buffer (1×HBSS, supplemented with 10 mM HEPES, pH 7.3). Cell suspensions were then homogenised using an Ultra Turrax at setting 4-6 for 20 s. The homogenate was centrifuged at 1,700 rpm for 10 min and the supernatant was collected and centrifuged at 20,000 rpm for 1 h at 4° C. The resulting pellet was resuspended in buffer and stored at −80° C. in aliquots of 200-500 μl. The protein concentration was determined by the method of Bradford (1976), using bovine serum albumin as standard. The platelets were washed by centrifugation at 600×g for 10 min and resuspended in ice-cold assay buffer (10 mM Tris-HCl, pH 7.4, 5 mM Glucose, 120 mM NaCl, 10 μM indomethacin) and directly centrifuged at 20,000 rpm for 30 min at 4° C. The resulting pellet was treated as described above.
(§3) [3H]PGD2 (160 Ci/mmol) binding experiments were performed on membranes prepared as described above. Assays were performed in a final volume of 100 μl of buffer (1×HBSS/HEPES 10 mM, pH 7.3). Cell membranes (15 μg). Cell membranes […] were preincubated at room temperature with varying concentration of competing ligand for 15 min. [3H]PGD2 ([…]) was then added and the incubation continued for a further one hour at room temperature. The reaction was terminated by the addition of 200 μl ice-cold assay buffer to each well, followed by rapid filtration through Whatman GF/B glass fibre filters using a Unifilter Cell harvester (PerkinElmer Life Sciences) and six washes of 300 μl of ice-cold buffer. The Unifilter plates were dried at room temperature for at least 1 h and the radioactivity retained on the filters was determined on a Beta Trilux counter (PerkinElmer Life Sciences), following addition of 40 μl of Optiphase Hi-Safe 3 (Wallac) liquid scintillation. Non specific binding was defined in the presence of […] unlabelled PGD2. Assays were performed in duplicate.

CRTH2 [1] = target: T2, CRTH2 (Homo sapiens, UniProt Q9Y5Y4); test: Calcium mobilisation assay in CHO/CRTH2 cells (PGD2-induced calcium flux); type: cell-based; conditions: for IC50: inhibition of PGD2-induced calcium flux, read-out: CRTH2 Ca flux IC50
T2 construct: expressed in transfected cells; host or cells: Chinese Hamster Ovary (CHO) cells, G418 selected
T2 sequence (Q9Y5Y4 1-395): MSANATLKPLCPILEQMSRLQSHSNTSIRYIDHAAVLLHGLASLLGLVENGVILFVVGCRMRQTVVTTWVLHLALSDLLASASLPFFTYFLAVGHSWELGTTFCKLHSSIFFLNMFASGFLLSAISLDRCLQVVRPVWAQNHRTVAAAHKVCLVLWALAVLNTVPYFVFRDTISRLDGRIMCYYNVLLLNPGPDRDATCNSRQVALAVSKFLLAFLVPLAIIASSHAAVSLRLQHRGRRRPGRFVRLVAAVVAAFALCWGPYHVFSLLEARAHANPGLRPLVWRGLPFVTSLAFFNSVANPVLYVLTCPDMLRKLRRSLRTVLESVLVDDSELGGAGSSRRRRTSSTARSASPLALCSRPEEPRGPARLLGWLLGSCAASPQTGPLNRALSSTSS
Experimental: as §1
Cells were seeded onto poly-D-lysine coated 96-well plates at a density of 80,000 cells per well and incubated at 37° C. overnight to allow the cells to adhere. Cells were washed twice with HBSS and incubated for 1 h at 37° C. in 100 μl HBSS and 100 μl calcium-3-dye (Molecular Devices) solution, supplemented with 4 mM probenecid. Changes in fluorescence were monitored over a 50 s time course with agonist addition at 17s using a Flexstation (Molecular Devices).

CRTH2 [2] = target: T2, CRTH2; test: [3H]PGD2 radioligand binding on CHO/CRTH2 cell membranes; conditions: competition versus [3H]PGD2, CHO/CRTH2 membranes
Experimental: as §1, §2, §3

Row | SMILES | Ki (DP receptor) | IC50 (CRTH2 [1]) | Ki (CRTH2 [2]) | EC50 (CRTH2 [1]; agonist, n=3, read-out: EC50 for increase in intracellular Ca2+ mobilisation)
1 | CCCCS(=O)(=O)c1c(C)n(CC(=O)O)c2ccc(F)cc12 [Compound 1, [3-(Butane-1-sulfonyl)-5-fluoro-2-methyl-indol-1-yl]-acetic acid] | > 10000 nM | 280 nM | 192 nM | 
2 | Cc1c(S(=O)(=O)c2ccc(-c3ccccc3)cc2)c2cc(F)ccc2n1CC(=O)O [Compound 2] | > 10000 nM | 163 nM | 75 nM | 
3 | Cc1c(S(=O)(=O)CC(=O)O)c2cc(F)ccc2n1CC(=O)O [Compound 3, (3-Carboxymethanesulfonyl-5-fluoro-2-methyl-indol-1-yl)-acetic acid] |  |  | 2000 nM | 
4 | Cc1c(S(=O)(=O)CC(N)=O)c2cc(F)ccc2n1CC(=O)O [Compound 4, (3-Carbamoylmethanesulfonyl-5-fluoro-2-methyl-indol-1-yl)-acetic acid] |  |  | 2300 nM | 
5 | Cc1c(S(=O)(=O)CCS(C)(=O)=O)c2cc(F)ccc2n1CC(=O)O [Compound 5, [5-Fluoro-3-(2-methanesulfonyl-ethanesulfonyl)-2-methyl-indol-1-yl]-acetic acid] | > 10000 nM | 268 nM | 89 nM | 
6 | Cc1c(S(=O)(=O)c2nc3ccccc3s2)c2cc(F)ccc2n1CC(=O)O [Compound 6, [3-(Benzothiazole-2-sulfonyl)-5-fluoro-2-methyl-indol-1-yl]-acetic acid] |  | 345 nM | 209 nM | 
7 | Cc1c([S+]([O-])c2nc3ccccc3s2)c2cc(F)ccc2n1CC(=O)O (stereo not shown) [Compound 7, [3-(Benzothiazole-2-sulfinyl)-5-fluoro-2-methyl-indol-1-yl]-acetic acid] |  | 163 nM | 54 nM | 
8 | Cc1c(S(=O)(=O)c2ccc3ccccc3n2)c2cc(F)ccc2n1CC(=O)O [Compound 8, [5-Fluoro-2-methyl-3-(quinoline-2-sulfonyl)-indol-1-yl]-acetic acid] |  | 330 nM | 249 nM | 
9 | Cc1c(S(=O)(=O)c2cccc3cccnc23)c2cc(F)ccc2n1CC(=O)O [Compound 9, [5-Fluoro-2-methyl-3-(quinolin-8-ylsulfonyl)-indol-1-yl]-acetic acid] | > 10000 nM |  | 254 nM | 
10 | Cc1c(S(=O)(=O)Cc2ccccc2)c2cc(F)ccc2n1CC(=O)O [Compound 10, (5-Fluoro-2-methyl-3-phenylmethanesulfonyl-1H-indol-1-yl)-acetic acid] |  | 79 nM | 6 nM | 
11 | Cc1c(S(=O)(=O)Nc2ccc(Cl)cc2)c2cc(F)ccc2n1CC(=O)O [Compound 11, [3-(4-Chloro-phenylsulfamoyl)-5-fluoro-2-methyl-indol-1-yl]-acetic acid] | > 10000 nM | 197 nM | 51 nM | 
12 | Cc1c(S(=O)(=O)Nc2cccc(Cl)c2)c2cc(F)ccc2n1CC(=O)O [Compound 12, [3-(3-Chloro-phenylsulfamoyl)-5-fluoro-2-methyl-indol-1-yl]-acetic acid] | > 10000 nM | 82 nM | 45 nM | 
13 | Cc1c(S(=O)(=O)Nc2ccc(F)cc2)c2cc(F)ccc2n1CC(=O)O [Compound 13, [3-(4-Fluoro-phenylsulfamoyl)-5-fluoro-2-methyl-indol-1-yl]-acetic acid] |  | 1650 nM | 182 nM | 
14 | Cc1c(S(=O)(=O)Nc2ccccc2Cl)c2cc(F)ccc2n1CC(=O)O [Compound 14, [3-(2-Chloro-phenylsulfamoyl)-5-fluoro-2-methyl-indol-1-yl]-acetic acid] |  | 390 nM | 225 nM | 
15 | Cc1c(S(=O)(=O)NCc2ccccc2)c2cc(F)ccc2n1CC(=O)O [Compound 15, (3-Benzylsulfamoyl-5-fluoro-2-methyl-indol-1-yl)-acetic acid] | > 10000 nM |  | 278 nM | 
16 | COc1ccccc1NS(=O)(=O)c1c(C)n(CC(=O)O)c2ccc(F)cc12 [Compound 16, [5-Fluoro-3-(2-methoxy-phenylsulfamoyl)-2-methyl-indol-1-yl]-acetic acid] | > 10000 nM |  | 771 nM | 
17 | COc1ccc(NS(=O)(=O)c2c(C)n(CC(=O)O)c3ccc(F)cc23)cc1 [Compound 17, [5-Fluoro-3-(4-methoxy-phenylsulfamoyl)-2-methyl-indol-1-yl]-acetic acid] | > 10000 nM |  | 1450 nM | 
18 | Cc1c(S(=O)(=O)Nc2ccccc2)c2cc(F)ccc2n1CC(=O)O [Compound 18, (5-Fluoro-2-methyl-3-phenylsulfamoyl-indol-1-yl)-acetic acid] | > 10000 nM |  | 236 nM | 
19 | Cc1c(S(=O)(=O)NCc2ccc(Cl)c(Cl)c2)c2cc(F)ccc2n1CC(=O)O [Compound 19, [3-(3,4-Dichloro-benzylsulfamoyl)-5-fluoro-2-methyl-indol-1-yl]-acetic acid] | > 10000 nM |  | 181 nM | 
20 | COc1cccc(NS(=O)(=O)c2c(C)n(CC(=O)O)c3ccc(F)cc23)c1 [Compound 20, [5-Fluoro-3-(3-methoxy-phenylsulfamoyl)-2-methyl-indol-1-yl]-acetic acid] | > 10000 nM |  | 531 nM | 
21 | Cc1cccc(NS(=O)(=O)c2c(C)n(CC(=O)O)c3ccc(F)cc23)c1 [Compound 21, (5-Fluoro-2-methyl-3-m-tolylsulfamoyl-indol-1-yl)-acetic acid] | > 10000 nM | 1060 nM | 176 nM | 
22 | Cc1ccc(NS(=O)(=O)c2c(C)n(CC(=O)O)c3ccc(F)cc23)cc1 [Compound 22, (5-Fluoro-2-methyl-3-p-tolylsulfamoyl-indol-1-yl)-acetic acid] | > 10000 nM |  | 1240 nM | 
23 | Cc1c(S(=O)(=O)NCc2ccc(Cl)cc2)c2cc(F)ccc2n1CC(=O)O [Compound 23, [3-(4-Chloro-benzylsulfamoyl)-5-fluoro-2-methyl-indol-1-yl]-acetic acid] | > 10000 nM |  | 164 nM | 
24 | Cc1c(S(=O)(=O)N(C)Cc2ccccc2)c2cc(F)ccc2n1CC(=O)O [Compound 24, [3-(Benzyl-methyl-sulfamoyl)-5-fluoro-2-methyl-indol-1-yl]-acetic acid] | > 10000 nM |  | 119 nM | 
25 | Cc1c(S(=O)(=O)Nc2cccnc2)c2cc(F)ccc2n1CC(=O)O [Compound 25, [5-Fluoro-2-methyl-3-(pyridin-3-ylsulfamoyl)-indol-1-yl]-acetic acid] | > 10000 nM |  | 4250 nM | 
26 | CCCCC[C@H](O)/C=C/[C@H]1C(=O)C[C@H](O)[C@@H]1C/C=C\CCCC(=O)O [PGD2, prostaglandin D2, reference compound] |  |  |  | 2.4 nM

Reference: patent US20070232681A1, “Compounds Having Crth2 Antagonist Activity” (Oxagen Limited, priority 2003, published 2007)
